According to patent US7968721B2, “Large-scale synthesis of selective androgen receptor modulators” (University of Tennessee Research Foundation, priority 2003, dated 2011):

Assays:
androgen receptor = test system: androgen receptor
Text: Assays to determine whether the compounds of the present invention are AR agonists or antagonists are well known to a person skilled in the art. For example, AR agonistic activity can be determined by monitoring the ability of the SARM compounds to maintain and/or stimulate the growth of AR containing tissue such as prostate and seminal vesicles, as measured by weight. AR antagonistic activity can be determined by monitoring the ability of the SARM compounds to inhibit the growth of AR containing tissue.

spermatogenesis = details: weekly intramuscular injections, men receiving therapy; cited from earlier work

| SMILES | action at the androgen receptor in vivo (androgen receptor) | anabolic and androgenic effects in vivo (androgen receptor) | men with azoospermia or severe oligospermia (less than 3 million sperm per ml) and infertility (spermatogenesis) [%] |
| --- | --- | --- | --- |
| CC(=O)Nc1ccc(OC[C@](C)(O)C(=O)Nc2ccc([N+](=O)[O-])c(C(F)(F)F)c2)cc1 [Compound (1), 3-[4-(acetylamino)phenoxy]-2-Hydroxy-2-methyl-N-[3trifluoromethyl-4-nitro-phenyl)-proprionamide] | partial agonist | strong anabolic and weakly androgenic effects |  |
| CCCCCCC(=O)O[C@H]1CC[C@H]2[C@@H]3CCC4=CC(=O)CC[C@]4(C)[C@H]3CC[C@]12C [testosterone enanthate] |  |  | 98 |
